According to US20110130390A1, “Use of COX-2 Inhibitors for the Treatment of Schizophrenia, Delusional Disorders, Affective Disorders, Autism or Tic Disorders” (priority 2001, published 2011):

What was measured:
[1] = format: in vivo, human; settings: FIG. 4
depressed patients [2] = assay: Drop-outs and side-effects in the celecoxib add-on to reboxetine trial; settings: celecoxib 400 mg/day add-on to reboxetine, n = 20
depressed patients [3] = assay: Hamilton-Depression scale, 17-item version (HamD), celecoxib add-on to reboxetine trial; format: in vivo, human; settings: 400 mg/day add-on to reboxetine, 6 weeks; ANOVA, Greenhouse-Geisser-corrected F=3.220; df 2.434; p=0.035; FIG. 10
Description: The psychopathology of the patients was assessed by raters, who had undergone a training program, using the Hamilton-Depression scale, 17-item version (HamD), 24 Assessment of psychopathology and other examinations were performed at weekly intervals.
For statistics, analysis of variance was used for the HamD scale. The degrees of freedom for the within-subjects comparisons were corrected for deviance from sphericity (Greenhouse-Geisser). Post-hoc t tests were used for the weekly comparison of HamD scores. An intent to treat analysis was performed using the “last observation carried forward” (LOCF) procedure.

DBA/2Ola mice = assay: Forced swim test; format: in vivo
Description: Various behavioral test paradigms have been developed for evaluating the antidepressant properties of novel drugs in animals. One of the most reliable and specific paradigm is the forced swim test which has been successfully used to determine the effectiveness of antidepressants, evaluate new pharmaceutical compounds and validate animal models of depression (Porsolt et al. (1977) Arch. Int. Pharmacodym. 229:327-336; Porsolt (2000) Rev. Neurosci. 11:53-58; Rénńric et al. (2002)Behav. Brain Res. 136:521-532; Page et al. (2003) Psychopharmacology 165:194-201; Kelliher et al. (2003) Psychoneuroendocrinology 28:332-347). The test consists of placing a mouse for a period of 5 minutes into a glass cylinder containing a water depth of at least 15 cm. Under such circumstances, a mouse cannot touch the bottom of the cylinder and is thus forced to swim. Time, latency and frequency of struggling/swimming versus floating are scored as behavioral parameters. Floating (i.e. movements made only for keeping balance and breath) can be interpreted as a depression-like behavior that reflects either a failure of persistent escape-directed behavior (i.e. behavioral despair) or the development of passive behavior that disengages the animal from active forms of coping with stress stimuli. By contrast, increased struggling (i.e. vigorous attempts to escape) and swimming indicates active coping behavior and can be interpreted as an opposite to depression-like behavior.
The antidepressant activity of rofecoxib was assessed in animals according to the forced swim test. Briefly, rofecoxib was given orally by gavage to mice either in a single acute administration of 10 mg or in a repetitive chronic administration of 4 mg per day (2 mg at 9:00 in the morning, 2 mg at 18:00 in the evening) for 28 days. Control animals received a negative control consisting of water only. The forced swim test was performed 4 hour after the last administration of rofecoxib. […] All observed results were confirmed statistically using the one-way ANOVA test.
(§1) The antidepressant activity of valdecoxib was assessed in DBA/2Ola mice according to the forced swim test. Briefly, chronic administration of valdecoxib was performed by oral gavage for 28 days at a concentration of 4 mg per day (2 mg at 9:00 in the morning, 2 mg at 18:00 in the evening) and 20 mg per day (10 mg at 9:00 in the morning, 10 mg at 18:00 in the evening). Control animals received a placebo consisting of water only. The behavior of individual animals was assessed using the forced swim test 24 hours after the last administration of valdecoxib. A pre-exposure of 5 minutes to the test was done 4 hours after the last administration of valdecoxib. All observed results were confirmed statistically using the one-way ANOVA test.
as §1, with “etoricoxib” for “valdecoxib”, “DBA/201a” for “DBA/2Ola”, “etoricoxib” for “chronic administration of valdecoxib”, “chronically administered to mice” for “performed”, “etoricoxib.” for “valdecoxib.”
The antidepressant activity of the COX-2 inhibitor Cimicoxib was assessed in DBA/2Ola mice using the forced swim test. Briefly, chronic administration of cimicoxib was performed by oral gavage to mice for 28 days at a concentration of 2 or 10 mg per kg bodyweight per day (1 or 5 mg at 9:00 in the morning, 1 or 5 mg at 18:00 in the evening). Control animals received a placebo consisting of water only. […]

[4] = chronic oral gavage 28 days, 2 or 10 mg per kg bodyweight per day, test 4 hours after the last administration, FIG. 9
[5] = chronic oral gavage 28 days, 4 mg per day and 20 mg per day, test 24 hours after the last administration
[6] = chronic oral 4 mg per day for 28 days, test 4 hour after the last administration, FIG. 6
[7] = single acute oral administration of 10 mg, test 4 hour after administration, FIG. 6

Description for schizophrenic patients: The psychopathology of the patients was assessed using the positive and negative syndrome scale (PANSS) (Kay et al., Schizophr. Bull. 1987, 13: 261-276). […] The statistics were performed according to the criterion of “last observation carried forward” (LOCF), i.e., the last PANSS scores of the patients who dropped out before the end of the study were carried forward to all subsequent observation days. For the comparison of the main efficacy parameter, the mean change in the PANSS between the two treatment groups, t-tests for independent samples were employed. […] For all other comparisons, two-tailed t-tests were used.

Cc1nc2n(c(=O)c1CCN1CCC(c3noc4cc(F)ccc34)CC1)CCCC2O (centres unmarked) [9-OH-risperidone]
differences in the plasma levels between risperidone-celecoxib and risperidone-placebo treatment [1]: without statistical significance

Cc1ccc(-c2cc(C(F)(F)F)nn2-c2ccc(S(N)(=O)=O)cc2)cc1 [celecoxib]
cardiovascular events or side-effects, clinically and by ECG surveillance (depressed patients [2]): no cardiovascular events or side-effects were observed
patients excluded or refusing further treatment due to a lack of therapeutic efficacy (depressed patients [2]): Five
PANSS items lack of contact, emotional isolation, passive-apathic isolation, social withdrawal, depression, motor retardation (schizophrenic patients; analysis of items discriminating good celecoxib-responders from the placebo group): therapeutic effects
PANSS items subsumed under the label agitation (schizophrenic patients; factor analysis, not seen with placebo): good therapeutic response
comparison of HamD scores during therapy with celecoxib or placebo (depressed patients [3]): advantage of celecoxib-group

COc1ccc(-c2c(Cl)ncn2-c2ccc(S(N)(=O)=O)cc2)cc1F [cimicoxib]
floating time (DBA/2Ola mice; [4]): decrease
struggling or swimming times (DBA/2Ola mice; [4]): statistically significant increase

Cc1nc2n(c(=O)c1CCN1CCC(c3noc4cc(F)ccc34)CC1)CCCC2 [risperidone]
differences in the plasma levels between risperidone-celecoxib and risperidone-placebo treatment [1]: without statistical significance

Cc1onc(-c2ccccc2)c1-c1ccc(S(N)(=O)=O)cc1 [valdecoxib]
floating time (DBA/2Ola mice; [5]): decreasing
struggling or swimming times (DBA/2Ola mice; [5]): statistically increased

etoricoxib
floating time (DBA/2Ola mice; [5]): decreasing
struggling or swimming times (DBA/2Ola mice; [5]): statistically increased or showed a tendency to increase

rofecoxib
floating time (DBA/2Ola mice; [6]): decreasing
struggling or swimming times (DBA/2Ola mice; [6]): statistically increased
floating time (DBA/2Ola mice; [7]): decreasing
struggling or swimming times (DBA/2Ola mice; [7]): statistically increased
